Source: US20040248915A1 (priority 2003, published 2004)
Several values for one entry are separate records, joined by “and”; a condition that tells them apart may be missing. Equal values may be shown once. Read-outs that look alike come from different tables or passages of the source.

How the values were obtained:
[1] = mice, bolus i.v. 20 mg/kg, cited from earlier work
[2] = system: advanced solid tumors; assay: Phase I continuous infusion in advanced solid tumors: toxicity; format: in vivo, human
Protocol: This is a dose and infusion length finding study to achieve a minimum steady-state plasma concentration of 21 ng/mL (0.1 μM) for 72-120 hr. The starting dose of 3 mg/m^2/d was determined from PK simulation modeling using data obtained from Phase I studies (30-minute infusions). The starting infusion duration was 48 hr with escalation to 72 hr, 96 hr and 120 hr in cohorts of 3-6 patients.
In the results evaluated to date, 12 adults with refractory solid tumors have been treated. The first cohort (4 patients) received drug for 48 h (total dose 6 mg/m^2) with no DLT. The second cohort of patients was treated for 72 hr (total 9 mg/m^2). […] The 2 patients with DLT had the highest plasma concentrations. Enrollment is ongoing at 2.25 mg/m^2/d for 96 h (total 9 mg/m^2).

[3] = system: relapsed acute myeloid leukemia (AML); conditions: in vivo
[4] = bolus administration
[5] = in vivo; conditions: female, mouse
Protocol: Antitumor efficacy studies: In vivo efficacy studies were conducted using the HT-29 human colorectal cancer cells grown as xenografts in nude mice. Female athymic CD-1(nu/nu) mice were injected s.c. with 2×10^6 human colon HT-29 tumor cells. Tumor bearing animals were randomised (10 to 15 per group) and treatment started when tumor volumes reached 80 to 120 mm^3 (days 6 to 9; depending on the study). Tumor measurements, taken by callipers twice weekly, were converted to tumor volumes (in mm^3) using the standard formula, [width (mm)]^2×length (mm)×0.52. […] The pumps were implanted s.c. under sterile conditions at the site opposite to the tumor. These pumps (internal volume, 200 μl) continuously deliver test agent at a rate of 1 μl/h for 200 h (8.3 days total). Pumps were removed after 1, 3, 5 or 6 days, thus insuring continuous delivery of test agent over the course of the experiment. […] To monitor the drug-associated toxicity, mice were weighed at least twice a week and daily inspected for observable clinical signs. Statistical analysis was performed by ANOVA (ANalysis Of VAriance) or by Student's t test. Differences were considered to be significant at P<0.05.

[6] = design: species or system mice; conditions: athymic CD-1 (nu/nu) nude, mouse, in vivo
Protocol: Blood was centrifuged at 10,000 g for 10 minutes and plasma was collected and frozen at −20° C. until further analysis. An aliquot of mouse plasma (100 μl) was precipitated with 300 μl of acetonitrile containing 3TC® (Shire BioChem) as internal standard. After centrifugation at 3,000 ×g for 5 minutes, 300 μl of supernatant was collected and evaporated to dryness under a gentle stream of nitrogen. The residue was then reconstituted with 100 μl of deionized water. […] The chromatography was achieved on a Luna C18 column (150×2 mm, 5 μm, Phenomenix, Torrance, Calif.) with a flow rate of 0.25 ml/min. The aqueous mobile phase, consisting of 10 mM ammonium acetate buffer, pH6.8, was held for 5 minutes and followed by a linear gradient of 0-50% acetonitrile over 8 minutes. Sample analysis was performed on a LC/MS/MS (TSQ7000, Thermo Finnigan, San Jose, Calif.) equipped with electrospray source.

[7] = system: HT-29 human colorectal cancer cells grown as xenografts in nude mice; assay: Antitumor efficacy studies in human xenografts; format: in vivo; conditions: for day from which tumor regressions were observed: 6-day infusion; for inhibition of tumor growth: 53-63 mg/kg
Protocol: Antitumor efficacy studies: In vivo efficacy studies were conducted using the HT-29 human colorectal cancer cells grown as xenografts in nude mice. Female athymic CD-1(nu/nu) mice were injected s.c. with 2×10^6 human colon HT-29 tumor cells. Tumor bearing animals were randomised (10 to 15 per group) and treatment started when tumor volumes reached 80 to 120 mm^3 (days 6 to 9; depending on the study). Tumor measurements, taken by callipers twice weekly, were converted to tumor volumes (in mm^3) using the standard formula, [width (mm)]^2×length (mm)×0.52. […] The pumps were implanted s.c. under sterile conditions at the site opposite to the tumor. These pumps (internal volume, 200 μl) continuously deliver test agent at a rate of 1 μl/h for 200 h (8.3 days total). Pumps were removed after 1, 3, 5 or 6 days, thus insuring continuous delivery of test agent over the course of the experiment. […] Compound efficacy was assessed at the end of the study by percentage of T/C defined as the mean treated tumor volume/mean control tumor volume×100%, with a T/C of about 40% or less being indicative of antitumor activity (J. Plowman et al., Human tumor xenograft models in NCI drug development in Teicher BA (ed) “Anticancer Drug Development Guide: Preclinical screening, clinical trials, and approval”. Humana Press Inc., Totowa, N.J. 1997;101-125). To monitor the drug-associated toxicity, mice were weighed at least twice a week and daily inspected for observable clinical signs. Statistical analysis was performed by ANOVA (ANalysis Of VAriance) or by Student's t test. Differences were considered to be significant at P<0.05.
Once we had established the optimum dose range (activity and well tolerated toxicity), a second study was performed to establish the time necessary to obtain optimum antitumor efficacy. This study was performed using 5, 10 and 20 mg/ml infused over 1, 3 and 5 days, when the tumors had reached 85 mm^3 (day 6).
Bolus administration was given by intravenous injection in the tail vein (10 ml/kg).

[8] = rats, 10 mg/kg injection; cited from earlier work
[9] = system: nucleoside transporters; conditions: membrane permeation not mediated by nucleoside transporters; cited from earlier work
[10] = cited from earlier work; for recommended doses: DLT neutropenia and skin rash
[11] = human, in vivo
[12] = molecular target: cytidine deaminase (CDA) (Homo sapiens, UniProt P32320); conditions: cited from earlier work
Sequence of cytidine deaminase (CDA) (P32320 whole entry, species assumed): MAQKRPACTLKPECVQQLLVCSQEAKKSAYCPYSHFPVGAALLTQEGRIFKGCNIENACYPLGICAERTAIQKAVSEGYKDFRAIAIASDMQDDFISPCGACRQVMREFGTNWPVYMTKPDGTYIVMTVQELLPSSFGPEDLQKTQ

[13] = in vivo; conditions: nude, mouse, 10.6 mg/kg
[14] = system: relapsed acute myeloid leukemia (AML); assay: Phase I continuous infusion in relapsed AML: toxicity and antileukemic activity
[15] = system: HT-29 human colorectal carcinoma cell line; assay: Clonogenic assay; format: cell-based; conditions: HT-29 clonal growth; for IC50: Homo sapiens
Protocol: Two different methods were used, the MTT colometric assay and the clonogenic assay. b)Clonogenic assay: HT-29 cells were plated on 6-well flat-bottomed plates (200-400 cells) and allowed to attach overnight. […] After the incubation period with the drug, cells were washed and fresh drug-free medium added. On day 10, cells were exposed to Crystal violet stain.

[16] = system: HT-29 human colorectal carcinoma cell line; assay: MTT colometric assay; format: cell-based; conditions: for GI50: Homo sapiens
Protocol: Two different methods were used, the MTT colometric assay and the clonogenic assay. a)MTT colometric assay: HT-29 cells were plated at 2.5×10^3 cells/well in a 96-well tissue culture plate and allowed to attach overnight. […] After the incubation period with the drug, cells were washed and fresh drug-free medium added. On day 3, cellular proliferation was evaluated by the tetrazolium dye assay.

In the case of `Nc1ccn([C@@H]2CO[C@H](CO)O2)c(=O)n1` [troxacitabine, (−)-β-L-Dioxolane-Cytidine], the Cmax ([1]; at 2 minutes, read-out: plasma Cmax) is listed as no less than 100 µM, the “elimination t1/2” value [1] is listed as 0.267 h and the “plasma drug concentration by 60 minutes” value [1] is listed as 4.5 µM. The main non-hematological toxicities ([2]; solid tumor patients, continuous infusion) was “mild to moderate skin rash”, the DLT ([2]; solid tumors, 2 mg/m^2/d over 3 days (total 6 mg/m^2), three patients) was “no DLTs observed” and the DLT ([2]; solid tumors, 3 mg/m^2/d for 48 h (total 6 mg/m^2), 4 patients) was “no DLT”. The “DLT's, patients” value ([2]; solid tumors, 3 mg/m^2/d for 72 hr (total 9 mg/m^2), Grade 4 neutropenia, fever, Grade 3 thrombocytopenia) was 2 of the 5, the body weight loss (50 mg/ml, 3-5 days following initiation of treatment) was no more than 20% and the “maximum tolerated dose (MTD)” value (pump concentration, continuous infusion 6 days, nude mice) was 50 mg/mL. The hand-foot syndrome ([3]; human) was “Grade 1 and 2 hand-foot syndrome was also observed at all dose levels”, the “dose-limiting Grade 3 stomatitis, patients” value ([3]; human, 6 days) was 2 of 4 and the “dose-limiting stomatitis, patients” value [3] was “Two of the four”. For the same compound, the skin rash [3] was “generalized mild to moderate skin rash was observed at all dose levels”, the “tolerated drug systemic concentrations, mice compared with humans” value [4] was “over 20 fold” and the “tolerated exposures, mice compared with humans” value [4] was “over 6 fold”. For the same compound, the MTD at 6 days [5] was 45 to 50 mg/kg/day, the “peak plasma concentrations with prolonged infusion” value [6] was 0.7 to 1.6 µM and the T/C ([7]; 0.5 mg/ml pump, continuous infusion 6 days, day 31) was 79%. The T/C ([7]; 5 mg/ml pump, continuous infusion 6 days, day 31) was 42%, the “antitumor activity of infusion compared with daily bolus” value ([7]; 10 mg/ml infusion over 6 days vs 10.6 mg/kg daily for 5 consecutive days) was “same antitumor activity” and the T/C ([7]; 10 mg/ml pump, continuous infusion 6 days, day 31) was 22%. The “day from which tumor regressions were observed” value ([7]; 10 mg/ml) was 29 days, the tumor course ([7]; 20 mg/ml infused over 3 days) was “tumor stasis during the first week after treatment followed by tumor regrowth” and the T/C ([7]; 20 mg/ml infused over 3 days, end of study) was 44%. For the same compound, the tumor regressions ([7]; 20 mg/ml, 5-day infusion) was “Tumor regressions were observed from day 18 till day 28 followed by regrowth”, the T/C ([7]; 20 mg/ml, 5-day infusion, end of study) was 27% and the T/C ([7]; 50 mg/ml pump, continuous infusion 6 days, day 31) was 11%. For the same compound, the “day from which tumor regressions were observed” value ([7]; 50 mg/ml) was 21 days, the “inhibition of tumor growth” value ([7]; 3-day administration regimens (q7d×3 or 3-day infusions)) was “intermediate” and the “inhibition of tumor growth” value ([7]; 5-6 day regimens (q1d×5 or 6-day infusions)) was “optimal”. The “effect on tumor growth” value ([7]; one day infusion (24 h), 5, 10 and 20 mg/ml) was “no effect”, the antitumor activity ([7]; single bolus i.v. injection 63 mg/kg) was “low activity” and the Cmax [8] was no less than 100 µM. The “major route of cellular uptake” value [9] was “passive diffusion”, the “drug exposure above or equal to 0.4 μM” value ([10]; bolus administration) was 19.3 h and the Cmax plasmatic ([10]; humans, 1.5 and 1.2 mg/m^2/d, first day) was 110 to 140 ng/mL. The “time to steady state plasma concentration” value ([10]; humans, 5 half-lives (5×12 hrs)) was 60 h, the recommended doses ([10]; humans, 30-minute infusion every 21 days) was 12.5 mg/m^2 and 10 mg/m^2 and the recommended doses ([10]; humans, 30-minute infusion on 5 consecutive days every 4 weeks) was 1.5 mg/m^2/d and 1.2 mg/m^2/d. For the same compound, the “plasma concentrations 5 minutes after drug administration” value ([10]; humans, administered clinical bolus doses) was 0.6 to 4 µM, the “drug concentration less than 30 minutes after the end of infusion” value ([10]; humans, i.v. 10 mg/m^2) was “less than 1 μM” and the “elimination t1/2” value ([10]; humans, i.v. 10 mg/m^2) was 13 h. For the same compound, the “time drug concentration remained above 0.1 μM” value ([10]; humans, i.v. 10 mg/m^2) was “approximately 12 hours”, the “maximum tolerated dose in humans” value ([10]; i.v. administration) was 10 mg/m^2 and the Cmax ([10]; read-out: Cmax plasmatic, humans, 1.5 and 1.2 mg/m^2/d, first day) was 0.52 to 0.66 µM. The Cmax ([10]; read-out: plasma Cmax, humans, i.v. 10 mg/m^2) was 4.1 µM, the “drug exposure above or equal to 0.4 μM” value [11] was 120 h and the “interpatient variation in observed concentrations at each protocol time-point” value [11] was 2-to 3 fold. The “deamination by cytidine deaminase (CDA)” value [12] was “resistant to deamination”, the AUC at 5 days [13] was 18800 ng·h/mL and the “bone marrow aplasia, patients” value ([14]; AML patients who received 40.4-60.6 mg/m^2) was 10 of 17. For the same compound, the “higher cumulative doses achieved than by bolus administration” value ([14]; AML patients, continuous infusion) was 25%, the recommended dose ([14]; AML patients, continuous infusion administered over five days) was 50.5 mg/m^2 and the bone marrow hypoplasia/aplasia ([14]; first 7 AML patients, cumulative doses ≦30.3 mg/m^2) was “not seen”. For the same compound, the “patients who achieved remissions” value ([14]; first 24 AML patients treated) was 4 patients, the “change in potency when incubation time increased from 72 hr to 144 hr” value [15] was “No further increase in potency” and the “difference between IC50 values following 24- and 72 hr exposures” value [15] was 5 fold. For the same compound, the IC50 ([15]; 24 hr exposure) was 2.2 µM, the IC50 ([15]; 72 hr exposure) was 0.4 µM and the “potency of 72-hour versus 1 hr exposure” value ([16]; HT-29, MTT) was 265 fold. For the same compound, the GI50 ([16]; HT-29, 24 h, HT-29, 24 hr drug exposure) was 5 µM, the GI50 ([16]; HT-29, 72 h, HT-29, 72 hr drug exposure) was 1 µM and the GI50 ([16]; HT-29, HT-29, 1 hr drug exposure, read on day 3) was 265 µM. The GI50 ([16]; HT-29, HT-29, 4 hr drug exposure, read on day 3) was 46 µM.
